Assay results published in ChEMBL document CHEMBL5506024, “Multitarget μ-Opioid Receptor Agonists─Neuropeptide FF Receptor Antagonists Induce Potent Antinociception with Reduced Adverse Side Effects” (J Med Chem, 2024).
Calls of active or inactive are those of the source. No cut-off for these calls is given here.

Columns and labels:
[1] = molecular target: T1, Pyroglutamylated RF-amide peptide receptor (Homo sapiens) (UniProt Q96P65); assay: Antagonist activity at human GPR103 expressed in CHO cells assessed as intracellular calcium release upto 10 uM by Fluo-4 AM dye based calcium mobilization assay; format: functional, cell-based
T1 sequence (whole entry): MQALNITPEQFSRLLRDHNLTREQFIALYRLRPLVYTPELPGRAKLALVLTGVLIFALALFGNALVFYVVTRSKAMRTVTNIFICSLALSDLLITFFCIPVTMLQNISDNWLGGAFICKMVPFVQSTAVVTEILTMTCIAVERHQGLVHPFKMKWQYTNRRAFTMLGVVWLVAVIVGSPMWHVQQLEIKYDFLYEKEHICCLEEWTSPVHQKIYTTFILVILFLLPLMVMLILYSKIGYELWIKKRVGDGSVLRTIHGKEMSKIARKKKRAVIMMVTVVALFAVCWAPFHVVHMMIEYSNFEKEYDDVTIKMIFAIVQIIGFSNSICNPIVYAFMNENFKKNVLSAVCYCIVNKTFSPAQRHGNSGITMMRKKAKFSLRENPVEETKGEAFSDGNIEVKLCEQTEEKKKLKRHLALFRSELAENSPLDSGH

[2] = Induction of naltrexone-precipitated withdrawal syndrome in sc dosed C57BL/6N mouse assessed as high jumping score administered for 8 days followed by naltrexone addition on day 9 after 2 hrs post last dose and measured after 30 mins; format: toxicity, organism-based; settings: in vivo, 216.5 h, time 12990 min
[3] = molecular target: KiSS-1 receptor (Homo sapiens) (UniProt Q969F8); assay: Antagonist activity at human GPR54 expressed in CHO cells assessed as intracellular calcium release upto 10 uM by Fluo-4 AM dye based calcium mobilization assay; format: functional, cell-based
Sequence of KiSS-1 receptor (Homo sapiens) (Q969F8 whole entry): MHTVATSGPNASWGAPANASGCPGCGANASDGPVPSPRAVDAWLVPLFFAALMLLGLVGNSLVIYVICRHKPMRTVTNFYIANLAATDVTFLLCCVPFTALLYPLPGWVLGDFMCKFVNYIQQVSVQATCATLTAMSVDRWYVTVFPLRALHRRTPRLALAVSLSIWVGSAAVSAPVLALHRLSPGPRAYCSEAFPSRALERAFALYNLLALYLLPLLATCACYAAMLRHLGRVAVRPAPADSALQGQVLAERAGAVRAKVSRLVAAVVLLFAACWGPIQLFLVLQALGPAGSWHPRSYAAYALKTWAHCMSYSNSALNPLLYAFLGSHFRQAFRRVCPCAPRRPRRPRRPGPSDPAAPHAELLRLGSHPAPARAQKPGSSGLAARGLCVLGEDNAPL

[4] = molecular target: T2, Neuropeptide FF receptor 1 (Homo sapiens, UniProt Q9GZQ6); assay: Displacement of [125I]-1DMeNPFF from human NPFFR1 expressed in CHO cell membrane at 0.5 uM incubated for 1 hr by Topcount counting method relative to control; format: cell membranes
T2 sequence (Q9GZQ6 whole entry): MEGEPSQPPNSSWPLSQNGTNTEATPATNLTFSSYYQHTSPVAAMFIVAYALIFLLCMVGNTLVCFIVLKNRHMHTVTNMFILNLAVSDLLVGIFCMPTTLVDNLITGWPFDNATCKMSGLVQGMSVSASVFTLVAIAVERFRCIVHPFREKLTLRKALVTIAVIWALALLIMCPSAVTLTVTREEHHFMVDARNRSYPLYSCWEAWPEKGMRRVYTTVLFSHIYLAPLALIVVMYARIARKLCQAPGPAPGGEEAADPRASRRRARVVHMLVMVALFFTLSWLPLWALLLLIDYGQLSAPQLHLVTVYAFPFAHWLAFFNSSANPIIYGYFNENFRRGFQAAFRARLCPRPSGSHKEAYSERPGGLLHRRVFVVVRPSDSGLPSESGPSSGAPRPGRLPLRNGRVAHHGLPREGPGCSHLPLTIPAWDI

[5] = molecular target: T2, Neuropeptide FF receptor 1; assay: Antagonist activity at human NPFFR1 expressed in CHO cell membrane assessed as inhibition of NPVF induced cAMP response at 5 uM incubated for 1 hr by Topcount counting method relative to control; format: functional, cell membranes; design: scale not given: the % may be the effect or the level left
[6] = molecular target: T3, Prolactin-releasing peptide receptor (Homo sapiens) (UniProt P49683); assay: Agonist activity at human GPR10 expressed in CHO cells assessed as intracellular calcium release upto 10 uM by Fluo-4 AM dye based calcium mobilization assay; format: functional, cell-based
T3 sequence (whole entry): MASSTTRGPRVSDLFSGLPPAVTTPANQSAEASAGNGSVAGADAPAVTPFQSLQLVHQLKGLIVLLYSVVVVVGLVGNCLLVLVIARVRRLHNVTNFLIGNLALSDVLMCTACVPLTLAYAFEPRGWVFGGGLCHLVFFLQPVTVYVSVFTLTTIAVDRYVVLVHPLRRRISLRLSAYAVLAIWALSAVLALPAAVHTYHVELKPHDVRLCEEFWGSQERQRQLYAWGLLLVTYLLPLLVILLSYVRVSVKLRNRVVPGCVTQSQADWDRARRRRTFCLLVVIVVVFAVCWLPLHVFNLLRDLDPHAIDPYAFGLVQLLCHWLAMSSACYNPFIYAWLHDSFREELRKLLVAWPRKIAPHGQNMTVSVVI

Mus musculus [7] = assay: Antinociceptive activity in mouse at 4.2 umol/kg, sc administered chronically and measured on day 8; format: functional, organism-based; settings: dose 4.2 µmol/kg
[8] = Toxicity in C57BL/6N mouse assessed as induction of respiratory depression by measuring decrease in pulmonary rate at 3.2 to 31.8 mg/kg, sc by plethysmography; format: organism-based; settings: in vivo, dose 3.2-31.8 mg/kg
[9] = Induction of naltrexone-precipitated withdrawal syndrome in sc dosed C57BL/6N mouse assessed as wet dog shake counts administered for 8 days followed by naltrexone addition on day 9 after 2 hrs post last dose and measured after 30 mins; format: toxicity, organism-based; settings: in vivo, 216.5 h, time 12990 min
[10] = Drug concentration in mouse plasma at 10 mg/kg, sc measured after 2 hrs by LC-MS/MS analysis; format: ADME, organism-based
[11] = molecular target: T3, Prolactin-releasing peptide receptor (Homo sapiens); assay: Antagonist activity at human GPR10 expressed in CHO cells assessed as intracellular calcium release upto 10 uM by Fluo-4 AM dye based calcium mobilization assay; format: functional, cell-based
[12] = molecular target: T4, Kappa-type opioid receptor (Homo sapiens, UniProt P41145); assay: Partial agonist activity at human KOR expressed in HEK293 cells assessed as forskolin-induced cAMP accumulation in presence of IBMX; format: functional, cell-based; settings: filed as partial agonist
T4 sequence (P41145 whole entry): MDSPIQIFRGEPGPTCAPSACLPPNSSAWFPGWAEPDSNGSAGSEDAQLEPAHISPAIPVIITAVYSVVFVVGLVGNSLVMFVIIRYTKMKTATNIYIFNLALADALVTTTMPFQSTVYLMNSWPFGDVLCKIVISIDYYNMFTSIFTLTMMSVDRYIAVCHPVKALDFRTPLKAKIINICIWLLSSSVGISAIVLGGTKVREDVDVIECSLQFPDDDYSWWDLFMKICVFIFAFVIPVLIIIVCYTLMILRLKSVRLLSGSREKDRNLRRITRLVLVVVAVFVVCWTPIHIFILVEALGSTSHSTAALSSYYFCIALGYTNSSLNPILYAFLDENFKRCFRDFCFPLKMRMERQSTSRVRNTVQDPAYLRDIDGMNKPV

Mu-type opioid receptor [13] = molecular target: T5, Mu-type opioid receptor (Homo sapiens, UniProt P35372); assay: Agonist activity at human MOP expressed in HEK293 cells coexpressing GloSensor-20F assessed as inhibition of forskolin-induced cAMP accumulation; format: functional, cell-based
T5 sequence (P35372 whole entry): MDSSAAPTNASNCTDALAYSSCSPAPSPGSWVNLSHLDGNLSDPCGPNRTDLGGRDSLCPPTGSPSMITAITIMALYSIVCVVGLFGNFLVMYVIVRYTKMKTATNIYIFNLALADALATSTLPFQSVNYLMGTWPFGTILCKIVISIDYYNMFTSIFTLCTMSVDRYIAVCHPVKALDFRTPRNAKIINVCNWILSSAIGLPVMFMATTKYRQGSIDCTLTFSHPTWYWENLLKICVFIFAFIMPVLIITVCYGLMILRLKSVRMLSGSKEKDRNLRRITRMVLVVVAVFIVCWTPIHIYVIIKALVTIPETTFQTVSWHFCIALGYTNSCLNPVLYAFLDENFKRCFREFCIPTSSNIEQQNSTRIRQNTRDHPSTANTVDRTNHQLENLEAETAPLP

[14] = molecular target: Nociceptin receptor (Homo sapiens) (UniProt P41146); assay: Antagonist activity at human NOR expressed in HEK293 cells assessed as forskolin-induced cAMP accumulation in presence of IBMX; format: functional, cell-based; settings: filed as antagonist
Sequence of Nociceptin receptor (Homo sapiens) (P41146 whole entry): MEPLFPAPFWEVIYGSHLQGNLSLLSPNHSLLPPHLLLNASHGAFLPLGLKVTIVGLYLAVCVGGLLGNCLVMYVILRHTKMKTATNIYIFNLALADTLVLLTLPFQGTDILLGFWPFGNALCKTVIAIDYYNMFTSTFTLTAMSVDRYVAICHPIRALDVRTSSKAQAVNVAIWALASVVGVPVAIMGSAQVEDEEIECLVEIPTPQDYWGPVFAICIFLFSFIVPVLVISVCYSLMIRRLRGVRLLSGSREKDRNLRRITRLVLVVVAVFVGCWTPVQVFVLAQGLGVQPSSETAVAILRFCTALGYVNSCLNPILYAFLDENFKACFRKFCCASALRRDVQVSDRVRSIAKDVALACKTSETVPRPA

[15] = molecular target: T6, Neuropeptide FF receptor 2 (Homo sapiens, UniProt Q9Y5X5); assay: Antagonist potency at human NPFFR2 expressed in CHO cell membrane assessed as inhibition of NPVF induced cAMP response incubated for 1 hr by Topcount counting method; format: functional, cell membranes; settings: read-out: pA2 (converted)
T6 sequence (Q9Y5X5 whole entry): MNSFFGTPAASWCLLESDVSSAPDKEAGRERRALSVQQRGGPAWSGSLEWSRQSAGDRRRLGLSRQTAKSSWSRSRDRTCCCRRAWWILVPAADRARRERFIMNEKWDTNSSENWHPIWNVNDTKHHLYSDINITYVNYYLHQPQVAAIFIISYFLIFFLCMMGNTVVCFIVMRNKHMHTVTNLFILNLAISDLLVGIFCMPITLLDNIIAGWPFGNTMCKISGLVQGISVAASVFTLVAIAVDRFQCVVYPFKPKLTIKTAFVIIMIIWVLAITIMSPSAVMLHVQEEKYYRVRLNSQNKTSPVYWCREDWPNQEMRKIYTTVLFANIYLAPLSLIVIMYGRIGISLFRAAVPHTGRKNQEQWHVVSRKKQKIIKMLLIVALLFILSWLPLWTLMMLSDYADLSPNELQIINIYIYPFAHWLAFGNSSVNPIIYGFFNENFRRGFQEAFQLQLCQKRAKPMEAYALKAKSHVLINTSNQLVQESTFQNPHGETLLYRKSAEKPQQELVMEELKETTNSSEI

Mu-type opioid receptor [16] = molecular target: T5, Mu-type opioid receptor; assay: Agonist activity at human Rluc8-tagged MOP expressed in HEK293 cells coexpressing eYFP-tagged beta-arrestin-2 assessed as beta-arrestin-2 recruitment incubated for 5 mins by luminometer analysis; format: functional, cell-based; settings: read-out: EC50
Mu-type opioid receptor [17] = molecular target: T5, Mu-type opioid receptor; assay: Agonist activity at human MOP expressed in HEK293 cells coexpressing GloSensor-20F assessed as inhibition of forskolin-induced cAMP accumulation relative to control; format: functional, cell-based; settings: filed as agonist
[18] = molecular target: T2, Neuropeptide FF receptor 1; assay: Displacement of [125I]-1DMeNPFF from human NPFFR1 expressed in CHO cell membrane incubated for 1 hr by Topcount counting method; format: cell membranes
[19] = molecular target: T2, Neuropeptide FF receptor 1; assay: Antagonist potency at human NPFFR1 expressed in CHO cell membrane assessed as inhibition of NPVF induced cAMP response incubated for 1 hr by Topcount counting method; format: functional, cell membranes; settings: read-out: pA2 (converted)
[20] = molecular target: KiSS-1 receptor (Homo sapiens) (UniProt Q969F8); assay: Agonist activity at human GPR54 expressed in CHO cells assessed as intracellular calcium release upto 10 uM by Fluo-4 AM dye based calcium mobilization assay; format: functional, cell-based
[21] = Induction of naltrexone-precipitated withdrawal syndrome in sc dosed C57BL/6N mouse assessed as paw tremor administered for 8 days followed by naltrexone addition on day 9 after 2 hrs post last dose and measured after 30 mins; format: toxicity, organism-based; settings: in vivo, 216.5 h, time 12990 min
Mu-type opioid receptor [22] = molecular target: T5, Mu-type opioid receptor; assay: Agonist activity at human Rluc8-tagged MOP expressed in HEK293 cells coexpressing eYFP-tagged beta-arrestin-2 assessed as beta-arrestin-2 recruitment incubated for 5 mins by luminometer analysis relative to control; format: functional, cell-based
[23] = molecular target: T6, Neuropeptide FF receptor 2; assay: Displacement of [125I]-1DMeNPFF from human NPFFR2 expressed in CHO cell membrane incubated for 1 hr by Topcount counting method; format: cell membranes
[24] = molecular target: T1, Pyroglutamylated RF-amide peptide receptor (Homo sapiens); assay: Agonist activity at human GPR103 expressed in CHO cells assessed as intracellular calcium release upto 10 uM by Fluo-4 AM dye based calcium mobilization assay; format: functional, cell-based
[25] = Tmax in mouse at 10 mg/kg, sc measured upto 24 hrs by LC-MS/MS analysis; format: ADME, organism-based; settings: in vivo
[26] = Induction of motor coordination impairment in C57BL/6 mouse at 10.5 mg/kg, sc by rotarod assay; format: toxicity, organism-based; settings: in vivo
Mus musculus [27] = assay: Antinociceptive activity in mouse at 2.5 to 10 mg/kg, sc measured after 6 hrs by tail immersion test; format: functional, organism-based; settings: dose 2.5-10 mg/kg
[28] = Induction of naltrexone-precipitated withdrawal syndrome in sc dosed C57BL/6N mouse assessed as diarrhea administered for 8 days followed by naltrexone addition on day 9 after 2 hrs post last dose and measured after 30 mins; format: toxicity, organism-based; settings: in vivo, 216.5 h, time 12990 min
[29] = molecular target: T6, Neuropeptide FF receptor 2; assay: Displacement of [125I]-1DMeNPFF from human NPFFR2 expressed in CHO cell membrane at 0.05 uM incubated for 1 hr by Topcount counting method relative to control; format: cell membranes; settings: filed as antagonist
[30] = Cmax in mouse at 10 mg/kg, sc measured upto 24 hrs by LC-MS/MS analysis; format: ADME, organism-based; settings: in vivo
[31] = molecular target: Delta-type opioid receptor (Homo sapiens) (UniProt P41143); assay: Agonist activity at human DOP expressed in HEK293 cells assessed as inhibition of forskolin-induced cAMP accumulation; format: functional, cell-based; settings: filed as agonist
Sequence of Delta-type opioid receptor (Homo sapiens) (P41143 whole entry): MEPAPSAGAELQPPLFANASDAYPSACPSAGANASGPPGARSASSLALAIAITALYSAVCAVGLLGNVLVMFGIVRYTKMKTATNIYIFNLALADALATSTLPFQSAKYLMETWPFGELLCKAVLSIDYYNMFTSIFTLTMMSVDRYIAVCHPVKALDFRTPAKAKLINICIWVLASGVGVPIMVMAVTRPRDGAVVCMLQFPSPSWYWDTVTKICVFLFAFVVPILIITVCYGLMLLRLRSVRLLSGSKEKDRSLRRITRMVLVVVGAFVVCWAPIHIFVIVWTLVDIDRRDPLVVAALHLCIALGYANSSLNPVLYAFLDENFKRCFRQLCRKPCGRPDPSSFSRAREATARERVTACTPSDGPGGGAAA

Mus musculus [32] = assay: Antinociceptive activity in mouse at 4.2 umol/kg, sc administered chronically and measured on day 1; format: functional, organism-based; settings: dose 4.2 µmol/kg
Mus musculus [33] = assay: Antinociceptive activity in mouse at 2.5 to 10 mg/kg, sc measured after 24 hrs by tail immersion test; format: functional, organism-based; settings: dose 2.5-10 mg/kg
[34] = molecular target: T6, Neuropeptide FF receptor 2; assay: Antagonist activity at human NPFFR2 expressed in CHO cell membrane assessed as inhibition of NPVF induced cAMP response at 5 uM incubated for 1 hr by Topcount counting method relative to control; format: functional, cell membranes; design: scale not given: the % may be the effect or the level left; settings: filed as antagonist
[35] = Half life in mouse at 10 mg/kg, sc measured upto 24 hrs by LC-MS/MS analysis; format: ADME, organism-based; settings: in vivo
Mus musculus [36] = assay: Antinociceptive activity in mouse at 4.2 umol/kg, sc administered daily and measured on day 1 and 8; format: functional, organism-based; settings: dose 4.2 µmol/kg
[37] = Induction of motor coordination impairment in C57BL/6 mouse at 12 mg/kg, sc by rotarod assay; format: toxicity, organism-based; settings: in vivo
[38] = Toxicity in C57BL/6N mouse assessed as induction of respiratory depression by measuring decrease in pulmonary rate at 4 to 36 mg/kg, sc by plethysmography; format: organism-based; settings: in vivo, dose 4-36 mg/kg
[39] = molecular target: T4, Kappa-type opioid receptor; assay: Antagonist activity at human KOR expressed in HEK293 cells assessed as forskolin-induced cAMP accumulation in presence of IBMX; format: functional, cell-based; settings: read-out: pA2 (converted)

Cc1cc(O)cc(C)c1C[C@H](N)C(=O)N(C)[C@H](C)C(=O)N[C@H]1Cc2c(ccc3ccccc23)CN(CCC(=O)N[C@@H](CCCN2CCC(Cc3ccccc3)CC2)C(=O)N[C@@H](Cc2ccccc2)C(N)=O)C1=O
Activity [1]: inactive | Activity [2]: Non-Toxic | Activity [3]: inactive | Activity [4]: 19% | Activity [5]: 26% | Activity [6]: inactive | Activity (Mus musculus [7]): inactive | Activity [8]: Non-Toxic | Activity [9]: Non-Toxic | concentration at 2 h [10]: 837 nM | Activity [11]: inactive | Activity [12]: Active | EC50 (Mu-type opioid receptor [13]): 4.5 nM | Activity [14]: Active | Kb [15]: 45.7 nM | EC50 (Mu-type opioid receptor [16]): > 4000 nM | Emax (Mu-type opioid receptor [17]): 75% | Ki [18]: 1310 nM | Kb [19]: 2450 nM | Activity [20]: inactive | Activity [21]: Non-Toxic | Emax (Mu-type opioid receptor [22]): 24% | Ki [23]: 32 nM | Activity [24]: inactive | Tmax [25]: 2.33 h | Activity [26]: Non-Toxic | Activity (Mus musculus [27]): Active | Activity [28]: Non-Toxic | Activity [29]: 57% | Cmax [30]: 805 nM | Activity [31]: Active | Activity (Mus musculus [32]): Active | Activity (Mus musculus [33]): Active | Activity [34]: 83% | half-life [35]: 3.3 h | Activity (Mus musculus [36]): Active

Cc1cc(O)cc(C)c1C[C@H](NC(=N)N)C(=O)N[C@H](CCCNC(=N)N)C(=O)N[C@H]1Cc2ccccc2CN(CCC(=O)N[C@@H](CCCN2CCC(Cc3ccccc3)CC2)C(=O)N[C@@H](Cc2ccccc2)C(N)=O)C1=O
Activity [1]: inactive | Activity [2]: Toxic | Activity [3]: inactive | Activity ([4]; filed as antagonist): 93% | Activity ([5]; filed as antagonist): 65% | Activity [6]: inactive | Activity (Mus musculus [7]): inactive | Activity [9]: Non-Toxic | concentration at 2 h [10]: 593 nM | Activity [11]: inactive | EC50 (Mu-type opioid receptor [13]): 9.9 nM | Activity [14]: Active | Kb [15]: 110 nM | EC50 (Mu-type opioid receptor [16]): 119 nM | Emax (Mu-type opioid receptor [17]): 66% | Ki [18]: 75 nM | Activity [37]: Non-Toxic | Kb [19]: 240 nM | Activity [20]: inactive | Activity [21]: Non-Toxic | Emax (Mu-type opioid receptor [22]): 15% | Ki [23]: 4.7 nM | Activity [24]: inactive | Tmax [25]: 1.67 h | Activity [38]: Non-Toxic | Activity (Mus musculus [27]): Active | Activity [28]: Non-Toxic | Activity [29]: 91% | Cmax [30]: 887 nM | Activity [31]: Active | Activity (Mus musculus [32]): Active | Kb [39]: 0.331 nM | Activity [34]: 71% | half-life [35]: 3.1 h | Activity (Mus musculus [36]): Active
